From ChEMBL document CHEMBL2429834, “Potent histone deacetylase inhibitors derived from 4-(aminomethyl)-N-hydroxybenzamide with high selectivity for the HDAC6 isoform” (J Med Chem, 2013) come the findings set out here.

The IC50 is the concentration needed to halve the response being measured. What is called inhibition is how much of the control response was suppressed.

Data set [1] addresses T1, Polyamine deacetylase HDAC10 (Homo sapiens, UniProt Q969S8).
T1 sequence (Q969S8 whole entry): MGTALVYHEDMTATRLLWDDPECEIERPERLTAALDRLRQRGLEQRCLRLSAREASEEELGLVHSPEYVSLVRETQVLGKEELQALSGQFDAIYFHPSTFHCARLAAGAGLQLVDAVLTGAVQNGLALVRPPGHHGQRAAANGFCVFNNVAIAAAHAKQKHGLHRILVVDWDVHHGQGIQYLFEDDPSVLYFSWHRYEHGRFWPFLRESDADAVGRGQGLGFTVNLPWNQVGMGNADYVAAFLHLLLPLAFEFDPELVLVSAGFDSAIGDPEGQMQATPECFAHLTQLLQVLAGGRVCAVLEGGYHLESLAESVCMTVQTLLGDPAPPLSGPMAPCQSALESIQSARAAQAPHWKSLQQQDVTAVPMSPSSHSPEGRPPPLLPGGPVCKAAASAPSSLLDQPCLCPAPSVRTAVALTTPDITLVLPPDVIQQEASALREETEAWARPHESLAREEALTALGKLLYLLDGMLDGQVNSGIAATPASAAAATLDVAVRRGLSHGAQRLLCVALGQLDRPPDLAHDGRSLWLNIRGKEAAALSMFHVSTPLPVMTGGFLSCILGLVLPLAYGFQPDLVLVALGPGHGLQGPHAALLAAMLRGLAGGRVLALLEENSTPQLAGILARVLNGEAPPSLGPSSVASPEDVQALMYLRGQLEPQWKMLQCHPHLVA
As to the kind of experiment: Inhibition of N-terminal GST-tagged recombinant human HDAC10 (1 to 481) expressed in baculovirus using Arg-His-Lys-Lys (Ac) as substrate after 1 hr by fluorescence plate reader analysis.

For data set [2], the target named is T2, Histone deacetylase 8 (Homo sapiens, UniProt Q9BY41).
T2 sequence (Q9BY41 whole entry): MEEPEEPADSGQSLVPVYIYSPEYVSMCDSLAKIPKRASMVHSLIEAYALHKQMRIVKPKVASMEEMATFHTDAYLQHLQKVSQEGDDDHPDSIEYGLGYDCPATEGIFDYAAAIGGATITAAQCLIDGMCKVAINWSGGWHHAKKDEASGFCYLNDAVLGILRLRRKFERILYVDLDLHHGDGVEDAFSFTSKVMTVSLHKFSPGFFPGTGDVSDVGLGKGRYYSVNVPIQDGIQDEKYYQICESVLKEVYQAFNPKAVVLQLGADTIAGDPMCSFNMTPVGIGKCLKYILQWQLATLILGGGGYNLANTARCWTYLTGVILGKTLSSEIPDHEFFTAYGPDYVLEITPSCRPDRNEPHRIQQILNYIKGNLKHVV
As to the kind of experiment: Inhibition of full length C-terminal His6x-tagged recombinant human HDAC8 expressed in baculovirus using Arg-His-Lys(Ac)-Lys(Ac) as substrate after 1 hr by fluorescence plate reader analysis.

Data set [3] in a line: Kinetic solubility of the compound in potassium phosphate buffer at pH 6.8 by turbidometric analysis. It counts as physicochemical. The note with it: read-out: Kinetic_solubility.
Data set [4] deals with T3, Protein deacetylase HDAC6 (Homo sapiens, UniProt Q9UBN7).
T3 sequence (Q9UBN7 whole entry): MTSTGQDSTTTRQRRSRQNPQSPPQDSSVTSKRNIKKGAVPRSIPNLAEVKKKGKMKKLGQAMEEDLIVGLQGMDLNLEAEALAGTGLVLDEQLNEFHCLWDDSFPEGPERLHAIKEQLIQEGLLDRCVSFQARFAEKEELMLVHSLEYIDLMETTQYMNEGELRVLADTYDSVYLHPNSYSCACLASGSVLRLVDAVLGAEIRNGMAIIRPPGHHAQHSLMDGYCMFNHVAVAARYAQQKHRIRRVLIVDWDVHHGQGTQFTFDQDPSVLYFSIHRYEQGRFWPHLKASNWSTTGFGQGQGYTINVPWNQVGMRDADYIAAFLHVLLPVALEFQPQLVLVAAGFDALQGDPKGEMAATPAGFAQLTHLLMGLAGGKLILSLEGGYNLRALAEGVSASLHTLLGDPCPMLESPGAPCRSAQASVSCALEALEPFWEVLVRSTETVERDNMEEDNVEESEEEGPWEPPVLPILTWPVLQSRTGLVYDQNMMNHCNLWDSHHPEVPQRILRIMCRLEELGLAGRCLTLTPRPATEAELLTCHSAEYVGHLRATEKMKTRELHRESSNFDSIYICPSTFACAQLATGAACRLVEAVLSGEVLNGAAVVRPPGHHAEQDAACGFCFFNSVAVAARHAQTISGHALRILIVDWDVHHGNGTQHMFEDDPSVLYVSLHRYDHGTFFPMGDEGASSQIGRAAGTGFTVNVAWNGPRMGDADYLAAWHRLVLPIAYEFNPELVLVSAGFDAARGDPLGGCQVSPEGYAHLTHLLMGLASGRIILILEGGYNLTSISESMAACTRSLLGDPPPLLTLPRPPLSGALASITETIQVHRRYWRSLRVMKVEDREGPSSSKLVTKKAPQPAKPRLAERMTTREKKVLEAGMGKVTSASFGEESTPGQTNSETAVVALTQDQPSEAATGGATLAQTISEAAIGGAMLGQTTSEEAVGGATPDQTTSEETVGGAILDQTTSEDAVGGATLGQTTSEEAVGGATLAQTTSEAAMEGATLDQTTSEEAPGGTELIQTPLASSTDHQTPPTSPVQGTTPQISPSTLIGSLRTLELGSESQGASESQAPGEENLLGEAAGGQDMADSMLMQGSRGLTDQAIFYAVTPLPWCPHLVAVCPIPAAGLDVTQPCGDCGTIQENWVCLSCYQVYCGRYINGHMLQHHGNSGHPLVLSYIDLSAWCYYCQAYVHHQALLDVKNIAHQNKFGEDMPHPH
As to the kind of experiment: Inhibition of HDAC6 in human HeLa cells using acetyl tubulin as substrate assessed as Ac-tubulin accumulation in cytosol after 6 hrs by immunofluorescence assay.

Data set [5] concerns the target Histone deacetylase 1 (Homo sapiens, UniProt Q13547). As to the kind of experiment: Inhibition of full length GST-tagged recombinant human HDAC1 expressed in baculovirus using Arg-His-Lys-Lys (Ac) as substrate after 2 hrs by fluorescence plate reader analysis.
Data set [6] has as its target Histone deacetylase 3 (Homo sapiens, UniProt O15379). Kind of data set: Inhibition of full length C-terminal His6x-tagged recombinant human HDAC3 expressed in baculovirus using Arg-His-Lys-Lys (Ac) as substrate after 2 hrs by fluorescence plate reader analysis.
Data set [7] deals with T4, Protein deacetylase HDAC6 (Homo sapiens) (UniProt Q9UBN7).
T4 sequence (whole entry): T3 sequence (Q9UBN7 whole entry)
Kind of data set: Inhibition of HDAC6 in human HeLa cells using acetyl tubulin as substrate assessed as Ac-Lys accumulation in nuclear histones at 20 uM after 24 hrs by immunofluorescence assay relative to control.

In data set [8] the target is Histone deacetylase 4 (Homo sapiens, UniProt P56524). As to the kind of experiment: Inhibition of N-terminal GST-tagged recombinant human HDAC4 (627 to 1085) expressed in baculovirus using acetyl-Lys(trifluoroacetyl)-AMC as substrate after 2 hrs by fluorescence plate reader analysis.
Histone deacetylase 4, sequence (P56524 whole entry): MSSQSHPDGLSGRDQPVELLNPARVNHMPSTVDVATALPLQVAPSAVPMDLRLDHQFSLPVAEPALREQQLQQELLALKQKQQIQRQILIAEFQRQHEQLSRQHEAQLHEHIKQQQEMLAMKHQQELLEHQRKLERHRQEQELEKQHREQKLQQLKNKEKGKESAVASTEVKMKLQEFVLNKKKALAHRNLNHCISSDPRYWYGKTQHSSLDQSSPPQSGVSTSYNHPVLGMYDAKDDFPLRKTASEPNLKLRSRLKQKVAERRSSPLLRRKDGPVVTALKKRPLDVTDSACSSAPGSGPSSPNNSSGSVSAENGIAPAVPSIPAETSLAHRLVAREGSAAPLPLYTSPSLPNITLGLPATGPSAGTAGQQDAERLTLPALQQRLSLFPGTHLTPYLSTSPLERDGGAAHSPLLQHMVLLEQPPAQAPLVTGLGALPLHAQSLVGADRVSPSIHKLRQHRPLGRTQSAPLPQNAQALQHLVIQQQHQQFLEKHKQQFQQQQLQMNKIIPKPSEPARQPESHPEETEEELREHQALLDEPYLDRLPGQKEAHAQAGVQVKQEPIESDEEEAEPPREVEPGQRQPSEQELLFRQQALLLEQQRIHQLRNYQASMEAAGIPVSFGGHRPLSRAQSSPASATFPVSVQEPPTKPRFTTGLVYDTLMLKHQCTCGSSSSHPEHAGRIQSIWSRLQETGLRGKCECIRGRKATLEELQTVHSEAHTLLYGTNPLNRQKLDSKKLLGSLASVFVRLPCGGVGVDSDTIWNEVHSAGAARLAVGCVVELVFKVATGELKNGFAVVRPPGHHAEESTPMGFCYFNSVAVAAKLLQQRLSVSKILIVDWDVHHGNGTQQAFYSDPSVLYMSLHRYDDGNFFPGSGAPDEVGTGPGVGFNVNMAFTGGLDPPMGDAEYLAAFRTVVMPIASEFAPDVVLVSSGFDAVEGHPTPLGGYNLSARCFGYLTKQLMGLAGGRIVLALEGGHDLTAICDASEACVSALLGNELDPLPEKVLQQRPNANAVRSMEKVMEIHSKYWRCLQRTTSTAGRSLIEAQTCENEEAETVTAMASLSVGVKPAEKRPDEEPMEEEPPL

Histone deacetylase 3, sequence (O15379 whole entry): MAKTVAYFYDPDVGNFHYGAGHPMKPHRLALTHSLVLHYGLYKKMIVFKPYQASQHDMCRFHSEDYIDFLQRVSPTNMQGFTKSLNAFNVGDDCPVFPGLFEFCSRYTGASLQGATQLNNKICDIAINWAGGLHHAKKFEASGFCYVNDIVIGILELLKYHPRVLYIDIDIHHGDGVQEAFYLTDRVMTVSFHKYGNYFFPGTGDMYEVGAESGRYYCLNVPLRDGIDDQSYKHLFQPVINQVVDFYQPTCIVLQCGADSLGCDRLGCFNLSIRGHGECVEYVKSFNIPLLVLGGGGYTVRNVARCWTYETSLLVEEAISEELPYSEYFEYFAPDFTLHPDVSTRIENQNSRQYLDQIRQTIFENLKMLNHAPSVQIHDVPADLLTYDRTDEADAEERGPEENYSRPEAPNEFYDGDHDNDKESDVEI
Histone deacetylase 1, sequence (Q13547 whole entry): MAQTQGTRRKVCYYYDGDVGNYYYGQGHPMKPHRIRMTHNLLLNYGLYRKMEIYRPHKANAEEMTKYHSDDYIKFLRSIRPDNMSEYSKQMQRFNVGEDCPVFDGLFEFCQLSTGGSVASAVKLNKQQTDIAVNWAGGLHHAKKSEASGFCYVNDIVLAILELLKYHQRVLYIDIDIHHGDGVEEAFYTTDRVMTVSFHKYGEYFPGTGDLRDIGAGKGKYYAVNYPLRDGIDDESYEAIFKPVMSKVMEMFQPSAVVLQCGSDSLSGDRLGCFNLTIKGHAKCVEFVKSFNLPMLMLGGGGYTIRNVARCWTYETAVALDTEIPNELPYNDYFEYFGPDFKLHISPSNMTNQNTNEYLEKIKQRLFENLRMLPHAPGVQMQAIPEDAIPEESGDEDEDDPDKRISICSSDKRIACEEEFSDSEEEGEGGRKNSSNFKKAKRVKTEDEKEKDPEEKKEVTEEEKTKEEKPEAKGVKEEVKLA

As for `Cn1cccc1C(=O)N1Cc2ccc(C(=O)NO)cc2C1`, the IC50 is greater than 50 µM in data set [1]; 1.3 µM in data set [2]; 0.34 µM in data set [4]; greater than 50 µM in data set [5]; greater than 50 µM in data set [6]; greater than 50 µM in data set [8]. The solubility kinetic in data set [3] is greater than 200 µM. Also, the inhibition in data set [7] was less than 20%.
Turning to `CC(C)(C)C(=O)N1Cc2ccc(C(=O)NO)cc2C1`, the concentration for half-maximal inhibition (IC50) is greater than 50 µM in data set [1]; 1.3 µM in data set [2]; 0.56 µM in data set [4]; greater than 50 µM in data set [5]; greater than 50 µM in data set [6]; greater than 50 µM in data set [8]. Besides, the solubility kinetic in data set [3] is greater than 200 µM. Also, the inhibition in data set [7] was less than 20%.
For the compound `Cn1cccc1C(=O)N1CCCc2cc(C(=O)NO)ccc2C1`, the IC50 in data set [1] was greater than 50 µM; in data set [2], 0.89 µM; in data set [4] it was 1.48 µM; in data set [5] it was greater than 50 µM; in data set [6], greater than 50 µM; in data set [8], greater than 50 µM. Further, the solubility kinetic in data set [3] was greater than 200 µM. In data set [7], the inhibition was less than 20%.
Regarding `Cn1cccc1C(=O)NCc1ccc(C(=O)NO)cc1`, the concentration for half-maximal inhibition (IC50) in data set [1] is 3.7 µM; in data set [2] it was 0.69 µM; in data set [4] it was 0.46 µM; in data set [5], 5.8 µM; in data set [6] it was 4.5 µM; in data set [8] it was 15 µM. Moreover, the solubility kinetic in data set [3] was greater than 200 µM. In addition, in data set [7], the inhibition is less than 20%.
Consider `CC(C)(C)C(=O)N1CCc2cc(C(=O)NO)ccc2C1`, for which the IC50 in data set [1] was greater than 50 µM; in data set [2], 2.1 µM; in data set [4], 0.43 µM; in data set [5], greater than 50 µM; in data set [6] it was greater than 50 µM; in data set [8], greater than 50 µM. For the same compound, the solubility kinetic in data set [3] is greater than 200 µM. Further, the inhibition in data set [7] is less than 20%.
On to `Cn1cccc1C(=O)N1CCc2cc(C(=O)NO)ccc2C1`, for which the IC50 in data set [1] was greater than 50 µM; in data set [2], 2.1 µM; in data set [4] it was 0.21 µM; in data set [5], 45 µM; in data set [6] it was 46 µM; in data set [8], greater than 50 µM. Besides, in data set [3], the solubility kinetic is greater than 200 µM. Also, the inhibition in data set [7] is less than 20%.
